Reference: US20140011822A1, “METHODS AND MATERIALS FOR REDUCING VENOUS STENOSIS FORMATION OF AN ARTERIOVENOUS FISTULA OR GRAFT” (priority 2011, published 2014)

Key:
[1] = tested on: outflow vein of arteriovenous fistula; experiment: Histomorphometry of outflow vein (neointima, media/adventitia, lumen area, cell density), simvastatin; assay type: in vivo, mice; settings: for Average reduction of media/adventitia area / average increase of lumen vessel area / average reduction of media/adventitia cell density / average reduction of neointima area / average reduction of neointima cell density: vs control
Protocol: (§1) Animals were housed at 22° C. temperature, 41% relative humidity, and 12-/12-hour light/dark cycles. Animals were allowed access to water and food ad libitum. […] Sixty-eight male C57BL/6 mice (Jackson Laboratories, Bar Harbor, Me.) weighing 25-30 grams were used for the present study (FIG. 18). Chronic kidney disease was created by surgical removal of the right kidney accompanied by ligation of the arterial blood supply to the upper pole of the left kidney as described elsewhere (Misra et al., J. Vasc. Interv. Radiol., 21:1255-1261 (2010); see, also, FIG. 18A). Three weeks after nephrectomy, the animals were started on simvastatin (40 mg/kg administered i.p. three times per week) or PBS (equal amount of volume used for simvastatin i.p. controls). Simvastatin was prepared as described elsewhere (Wilson et al., Arterioscler Thromb. Vasc. Biol., 21:122-128 (2001)). A week later, an AVF was created by connecting the right carotid artery to the ipsilateral jugular vein (FIG. 18B; see, also, Misra et al., J. Vasc. Interv. Radiol., 21:1255-1261 (2010) and Yang et al., J. Vasc. Interv. Radiol., 20:946-950 (2009)). Animals were sacrificed at day 7, day 14, and day 28 following AVF placement for real time polymerase chain reaction (RT-PCR) and histomorphometric analyses (FIG. 18C). Serum BUN and creatinine were measured by removing blood from the tail vein at baseline (before nephrectomy), at AVF creation, and at the time of sacrifice. […] These animals were started on simvastatin (40 mg/kg i.p.) or PBS (equal amount of volume i.p.) every other day one week before AVF placement and then sacrificed four weeks after fistula placement for histomorphometric analysis.
At euthanasia, all mice were anesthetized, and the arterio-venous fistula was carefully dissected from of the surrounding tissue. Animals were euthanized by use of CO2 asphyxiation, and the outflow veins harvested for RT-PCR or histomorphometric analyses as described elsewhere (Misra et al., Kidney Int., 68:2890-2900 (2005); Misra et al., J. Vasc. Interv. Radiol., 21:1255-1261 (2010); and Misra et al., Am. J. Physiol. Heart Circ. Physiol., 294:H2219-2230 (2008)).
(§2) Morphometric analysis was performed as described elsewhere (Misra et al., Kidney Int., 68:2890-2900 (2005); and Misra et al., Am. J. Physiol. Heart Circ. Physiol., 294:H2219-2230 (2008)). Briefly, the outflow vein was sectioned into multiple contiguous 4-μm paraffin embedded sections. Typically, 2 to 3 sections per animal for each group (simvastatin and controls) and time point (day 14 and day 28) were photographed and then quantified using KS 400 (Carl Zeiss, Inc., Thornwood, N.Y.) semiquantitative program.

CTGF = experiment: RT-PCR for CTGF at outflow vein, simvastatin; assay type: in vivo, mice; settings: day 14
Protocol: Animals were housed at 22° C. temperature, 41% relative humidity, and 12-/12-hour light/dark cycles. Animals were allowed access to water and food ad libitum. […] Sixty-eight male C57BL/6 mice (Jackson Laboratories, Bar Harbor, Me.) weighing 25-30 grams were used for the present study (FIG. 18). Chronic kidney disease was created by surgical removal of the right kidney accompanied by ligation of the arterial blood supply to the upper pole of the left kidney as described elsewhere (Misra et al., J. Vasc. Interv. Radiol., 21:1255-1261 (2010); see, also, FIG. 18A). Three weeks after nephrectomy, the animals were started on simvastatin (40 mg/kg administered i.p. three times per week) or PBS (equal amount of volume used for simvastatin i.p. controls). Simvastatin was prepared as described elsewhere (Wilson et al., Arterioscler Thromb. Vasc. Biol., 21:122-128 (2001)). […] Serum BUN and creatinine were measured by removing blood from the tail vein at baseline (before nephrectomy), at AVF creation, and at the time of sacrifice. […]
Expression for the gene of interest was determined using RT-PCR analysis as described elsewhere (Misra et al., J. Vasc. Interv. Radiol., 21:1255-1261 (2010)). […]

α-SMA = α-SMA staining of outflow vein, simvastatin; assay type: in vivo, mice; settings: for average reduction of α-SMA density: vs control
Protocol: Multiple serial four-micrometer sections were stained and analyzed. Cellular proliferation was determined by staining for Ki-67 on sections removed from the outflow vein for simvastatin treated vessels or control groups. Smooth muscle density (α-SMA) or proliferation index (Ki-67) was determined by staining on sections removed from the outflow vein by performing quantification at the different time points. Immunohistochemistry for Ki-67 and α-SMA was performed on paraffin-embedded sections from the outflow vein after transfection with either simvastatin or controls using the Vectastain Elite ABC system (Vector Laboratories, Burlingame, Calif., USA). The following antibodies were used: mouse monoclonal antibody Ki-67 (DAKO, Carpentaria, Calif.; 1:400) or rabbit polyclonal antibody to mouse for α-SMA (Abcam, Cambridge, Mass.; 1:400).
as §2

[2] = tested on: hypoxic changes in the outflow vein; experiment: Hypoxyprobe staining of outflow vein, simvastatin; assay type: in vivo, mice; settings: for average reduction of hypoxyprobe staining: vs control
Protocol: Hypoxic changes were assessed in the outflow vein of simvastatin treated vessels or control groups using Hypoxyprobe™-1 (EMD Millipore, Billerica, Mass.), a substituted derivative of pimonidazole hydrochloride. Hypoxyprobe™-1 upon activation forms stable covalent adducts with thiol groups of polypeptides and amino acids of hypoxic tissue. Mice were injected with 60 mg/kg Hypoxyprobe™-1 i.p. Thirty minutes following injection, mice were sacrificed, and outflow veins were dissected and fixed as specified for histological analysis. Four-micrometer thick paraffin embedded sections were stained with the anti-hypoxyprobe-1 Ab as per the manufacturer's directions.

NIH 3T3 cells = experiment: Cell migration (matrigel invasion) assay in NIH 3T3 cells, simvastatin; assay type: cell-based
Protocol: One hundred thousand NIH 3T3 cells were treated with simvastatin (1 μM, 5 μM, or 10 μM) or controls and made hypoxic for 24 hours as described elsewhere (Misra et al., J. Vasc. Interv. Radiol., 21:896-902 (2010)).
NIH 3T3 cells were synchronized for 24 hours in serum free media. Next, one hundred thousand NIH 3T3 cells were treated with simvastatin or controls and seeded in 8-micron trans-wells that were pre-coated with low growth factor matrigel in a serum free media. The complete media was supplemented under the trans-well and incubated for 6 hours at 37° C. After 6 hours, trans-wells were washed with PBS and fixed with paraformaldehye (4% v/v). Finally, trans-wells were stained with bromophenol (0.1%) solution. The cells from upper side were removed with cotton tip applicators. The cells at bottom side were counted for analysis.

VEGF-A = experiment: RT-PCR for VEGF-A at outflow vein, simvastatin; assay type: in vivo, mice
Protocol: as §1
The tissue was stored in RNA stabilizing reagent (Qiagen, Gaithersburg, Md.) as per the manufacturer's guidelines. To isolate the RNA, the specimens were homogenized, and total RNA was isolated using RNeasy mini kit (Qiagen) (Misra et al., J. Vasc. Interv. Radiol., 21:1255-1261 (2010); and Yang et al., J. Vasc. Interv. Radiol., 20:946-950 (2009)).
Expression for the gene of interest was determined using RT-PCR analysis as described elsewhere (Misra et al., J. Vasc. Interv. Radiol., 21:1255-1261 (2010)). Commercial PCR primers for the gene of interest were purchased from SA Biosciences (Frederick, Md.).

In the case of CCC(C)(C)C(=O)O[C@H]1C[C@@H](C)C=C2C=C[C@H](C)[C@H](CC[C@@H]3C[C@@H](O)CC(=O)O3)[C@H]21 [simvastatin], the “Average reduction of media/adventitia area” value ([1]; day 14) is reported as 43%, the “average increase of lumen vessel area” value ([1]; day 14) is reported as 150% and the “average reduction of media/adventitia cell density” value ([1]; day 14) is reported as 37%. The “average reduction of neointima area” value ([1]; day 14) was 56%, the “average reduction of neointima cell density” value ([1]; day 14) was 65% and the “average area of the neointima” value ([1]; day 28) was 85574±1652. For the same molecule, the “average cell density of the media/adventitia” value ([1]; day 28) was 2.85±0.10, the “average cell density of the neointima” value ([1]; day 28) was 4.2±0.2 and the “average lumen vessel area” value ([1]; day 28) was 162607±34685. For the same molecule, the “average increase of lumen vessel area” value ([1]; day 28) was 343%, the “average reduction of media/adventitia cell density” value ([1]; day 28) was 35% and the “average reduction of neointima area” value ([1]; day 28) was 45%. The “average reduction of neointima cell density” value ([1]; day 28) was 70%, the “Average reduction of media/adventitia area” value ([1]; day 28, not statistically significant (P=0.03)) was 32% and the “average cell density of the media/adventitia” value ([1]; day 28 normal) was 1.67±0.1. For the same molecule, the “average cell density of the neointima” value ([1]; day 28 normal) was 2.63±0.11, the “average reduction of media/adventitia cell density” value ([1]; day 28 normal) was 71% and the “average reduction of neointima cell density” value ([1]; day 28 normal) was 61%. The “Average reduction of media/adventitia area” value ([1]; day 28 normal, not statistically significant (P=0.03)) was 29%, the “mean gene expression of CTGF” value (CTGF) was 0.29±0.05 and the “average reduction of CTGF gene expression” value (CTGF; vs control) was 45%. For the same molecule, the “average α-SMA density” value (α-SMA; day 14) was 24±1.2, the “average reduction of α-SMA density” value (α-SMA; day 14) was 46% and the “average α-SMA density” value (α-SMA; day 28) was 8.4±1.6. For the same molecule, the “average reduction of α-SMA density” value (α-SMA; day 28) was 87%, the “average α-SMA density” value (α-SMA; day 28 normal) was 28.4±1.6 and the “average reduction of α-SMA density” value (α-SMA; day 28 normal) was 32%. For the same molecule, the “average density of hypoxyprobe staining” value ([2]; day 14) was 18.33±2.06, the “average reduction of hypoxyprobe staining” value ([2]; day 14) was 53% and the “average density of hypoxyprobe staining” value ([2]; day 28) was 13.01±4.62. For the same molecule, the “average reduction of hypoxyprobe staining” value ([2]; day 28) was 70%, the “reduction of hypoxyprobe staining” value ([2]; day 28 normal, vs control (P=0.0103)) was 72% and the “average reduction of migratory capacity” value (NIH 3T3 cells; 5 μM, 24 hours hypoxia) was 47%. For the same molecule, the “average reduction of migratory capacity” value (NIH 3T3 cells; 5 μM, 24 hours normoxia) was 32%, the “average reduction of migratory capacity” value (NIH 3T3 cells; 10 μM, 24 hours hypoxia) was 62% and the “average reduction of migratory capacity” value (NIH 3T3 cells; 10 μM, 24 hours normoxia) was 50%. For the same molecule, the “mean gene expression of VEGF-A” value (VEGF-A; day 7) was 0.58±0.06, the “Average reduction of VEGF-A gene expression” value (VEGF-A; day 7, vs control) was 44% and the “mean gene expression of VEGF-A” value (VEGF-A; day 14) was 0.51±0.1. The “Average reduction of VEGF-A gene expression” value (VEGF-A; day 14, vs control) was 49%.
